Like-named read-outs stand apart in the source and are kept apart here.
What was measured:
[1] = system: human beta-coronavirus OC43; assay: OC43 coronavirus antiviral assay in HeLa cells (cytopathic effect, cell-titer-glo); format: cell-based; conditions: Betacoronavirus 1, OC43, HeLa, 144 h, 6 days at 33° C.
human cathepsin L = target: T1, human cathepsin L (Homo sapiens, UniProt P07711); assay: Cathepsin L assay (Z-FR-AMC fluorescence); format: biochemical; conditions: 10 pM human cathepsin L, 30 mins preincubation, Z-FR-AMC 2 μM
T1 construct: purchased R&D Systems
Procedure: For the cathepsin L assay, 10 pM of human cathepsin L (R&D Systems; Minneapolis, MN) was preincubated for 30 mins with test compounds. Reactions were initiated by the addition of a peptide substrate Z—FR-AMC (final concentration 2 μM, Anaspec; Fremont, CA). Fluorescence was measured at 2-minute intervals for 30 mins using a 355/460 excitation/emission filter module on an Envision plate reader (Perkin Elmer; Waltham, MA). The IC50 values were calculated for each assay by fitting the curves using a four-parameter equation in GraphPad Prism.

SARS-Cov-2 3CLpro = target: T2, SARS-Cov-2 3CLpro (Severe acute respiratory syndrome coronavirus 2, UniProt P0DTD1); assay: biochemical; conditions: 3CLpro, 30 mins preincubation, SAMDI-MS; read-out: SARS-Cov-2 IC50 (class)
T2 construct: 3CLpro and HRV3C was added using a Multidrop Combi

HRV3C = target: T3, HRV3C (Human rhinovirus 14, UniProt P03303); assay: biochemical; design: species or system HRV; conditions: HRV3C, 30 mins preincubation, SAMDI-MS; read-out: HRV IC50 (bound)
T3 construct: 3CLpro and HRV3C was added using a Multidrop Combi

[2] = system: B.1.1.7 lineage SARS-CoV-2; assay: microbe, parasite or virus in culture; format: cell-based; conditions: Severe acute respiratory syndrome coronavirus 2, 96 h, read-out: A549-dual_ACE2_TMPRSS2 (EC50)

T3 sequence (P03303 1538-1719): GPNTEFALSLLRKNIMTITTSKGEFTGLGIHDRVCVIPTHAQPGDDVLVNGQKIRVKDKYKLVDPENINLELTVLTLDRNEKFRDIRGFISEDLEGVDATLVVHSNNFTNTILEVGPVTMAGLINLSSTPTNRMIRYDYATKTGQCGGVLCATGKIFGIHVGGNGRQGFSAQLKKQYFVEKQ
T1 sequence (P07711 114-333): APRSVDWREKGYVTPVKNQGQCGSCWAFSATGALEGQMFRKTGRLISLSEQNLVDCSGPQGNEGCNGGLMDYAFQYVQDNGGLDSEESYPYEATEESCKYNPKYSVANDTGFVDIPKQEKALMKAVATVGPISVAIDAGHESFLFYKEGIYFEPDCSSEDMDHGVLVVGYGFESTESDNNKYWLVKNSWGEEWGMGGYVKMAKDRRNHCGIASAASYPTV

Compound | EC50 ([1]; read-out: EC50 (bound)) [nM] | IC50 (human cathepsin L) [nM] | IC50 (SARS-Cov-2 3CLpro) [nM] | IC50 (HRV3C) [nM] | EC50 ([2]; […], numeric bounds given instead of class symbols) [nM] | EC50 ([1]; read-out: EC50 (class)) [nM] | EC50 [2] [nM]
CC(C)(C)[C@H](NC(=O)C(F)(F)F)C(=O)N1C[C@H]2[C@H]3CC[C@H](CC3)[C@H]2[C@@H]1C(=O)N[C@H](C#N)C[C@@H]1CCNC1=O [Compound 71a] | > 10000 | ≥ 10000 | 2000 to 20000 | > 10000 | > 10000 | – | –
COC(C)(C)[C@H](NC(=O)C(F)(F)C(F)(F)F)C(=O)N1C[C@H]2[C@@H]([C@H]1C(=O)N[C@H](C#N)C[C@@H]1CCNC1=O)[C@H]1C=C[C@@H]2C1 [Compound 131] | – | ≥ 10000 | < 20 | > 500 | – | < 100 | < 100
CC(C)(C)[C@H](NC(=O)C(F)(F)F)C(=O)N1C[C@@H]2[C@@H]3C=C[C@@H]([C@H]4C[C@@H]34)[C@@H]2C1C(=O)N[C@H](C#N)C[C@@H]1CCNC1=O (stereo partly drawn) [Example 88, (3aR,4R,4aR,5aS,6S,6aS)-N-((S)-1-cyano-2-((S)-2-oxopyrrolidin-3-yl)ethyl)-2-((S)-3,3-dimethyl-2-(2,2,2-trifluoroacetamido)butanoyl)-1,2,3,3a,4,4a,5,5a,6,6a-decahydro-4,6-ethenocyclopropa[f]isoindole-1-carboxamide] | – | – | < 20 | > 10000 | – | 100 to 1000 | 100 to 1000
CC(C)(C)[C@H](NC(=O)C(F)(F)C(F)(F)F)C(=O)N1C[C@@H]2[C@H]3C[C@@H]([C@@H]2[C@H]1C(=O)N[C@H](C#N)C[C@@H]1CCNC1=O)[C@H](F)C3 [Example 87, (1S,3aR,4S,6R,7S,7aR)—N-((S)-1-cyano-2-((S)-2-oxopyrrolidin-3-yl)ethyl)-2-((S)-3,3-dimethyl-2-(2,2,3,3,3-pentafluoropropanamido)butanoyl)-6-fluorooctahydro-1H-4,7-methanoisoindole-1-carboxamide] | – | – | < 20 | > 500 | – | < 100 | < 100
C=C(C)C(C)(C)[C@H](NC(=O)C(F)(F)F)C(=O)N1C[C@H]2[C@@H]([C@H]1C(=O)N[C@H](C#N)C[C@@H]1CCNC1=O)[C@H]1C=C[C@@H]2C1 [Example 97] | – | – | < 20 | > 10000 | – | < 100 | < 100
C[C@H]1[C@H]2[C@@H]([C@@H](C(=O)N[C@H](C#N)C[C@@H]3CCNC3=O)N1C(=O)[C@@H](NC(=O)C(F)(F)F)C(C)(C)C)[C@H]1C=C[C@@H]2C1 [Example 93, (1R,2S,3S,5S,6R,7S)—N-[(1S)-1-cyano-2-[(3S)-2-oxopyrrolidin-3-yl]ethyl]-4-[(2S)-3,3-dimethyl-2-(2,2,2-trifluoroacetamido)butanoyl]-5-methyl-4-azatricyclo[5.2.1.0^{2,6}]dec-8-ene-3-carboxamide] | – | – | < 20 | > 500 | – | < 100 | < 100
CC(C)(OCC1CC1)[C@H](NC(=O)C(F)(F)C(F)(F)F)C(=O)N1C[C@H]2[C@@H]([C@H]1C(=O)N[C@H](C#N)C[C@@H]1CCNC1=O)[C@H]1C=C[C@@H]2C1 [Compound 103] | – | – | < 20 | > 500 | – | < 100 | < 100
CC1(C)NC(=O)[C@H](C[C@@H](C#N)NC(=O)[C@@H]2[C@@H]3[C@H](CN2C(=O)[C@@H](NC(=O)C(F)(F)F)C(C)(C)C)[C@@H]2C=C[C@H]3C2)O1 [Compound 105, (1S,3aR,4S,7R,7aS)-N-((S)-1-cyano-2-((S)-2,2-dimethyl-4-oxooxazolidin-5-yl)ethyl)-2-((S)-3,3-dimethyl-2-(2,2,2-trifluoroacetamido)butanoyl)-2,3,3a,4,7,7a-hexahydro-1H-4,7-methanoisoindole-1-carboxamide] | – | – | 20 to 200 | > 500 | – | 100 to 1000 | < 100
CC(C)(C)[C@H](NC(=O)C(F)(F)C(F)(F)F)C(=O)N1C[C@H]2[C@@H]([C@H]1C(=O)N[C@H](C#N)CC1CC3(COC3)NC1=O)[C@H]1C=C[C@@H]2C1 (stereo partly drawn) [Compound 107, (1R,2S,3S,6R,7S)—N-[(1S)-1-cyano-2-{6-oxo-2-oxa-5-azaspiro[3.4]octan-7-yl}ethyl]-4-[(2S)-3,3-dimethyl-2-(2,2,3,3,3-pentafluoropropanamido)butanoyl]-4-azatricyclo[5.2.1.0^{2,6}]dec-8-ene-3-carboxamide] | – | – | < 20 | > 500 | – | < 100 | < 100
CC(C)(C)[C@H](NC(=O)C(F)(F)F)C(=O)N1C[C@H]2[C@@H]([C@H]1C(=O)N[C@H](C#N)C[C@@H]1OCCNC1=O)[C@H]1C=C[C@@H]2C1(F)F [Compound 117] | – | – | < 20 | > 500 | – | < 100 | < 100
CC(C)(C)[C@H](NC(=O)C(F)(F)F)C(=O)N1C[C@H]2[C@@H]([C@H]1C(=O)N[C@H](C#N)CC1C[C@H](C(F)(F)F)NC1=O)[C@H]1C=C[C@@H]2C1 (stereo partly drawn) [Compound 108, (1R,2S,3S,6R,7S)—N-[(1S)-1-cyano-2-[(5R)-2-oxo-5-(trifluoromethyl)pyrrolidin-3-yl]ethyl]-4-[(2S)-3,3-dimethyl-2-(2,2,2-trifluoroacetamido)butanoyl]-4-azatricyclo[5.2.1.0^{2,6}]dec-8-ene-3-carboxamide] | – | – | < 20 | > 500 | – | < 100 | < 100
CC(C)(C)[C@H](NC(=O)C(F)(F)F)C(=O)N1C[C@H]2[C@@H]([C@H]1C(=O)N[C@H](C#N)C[C@@H]1CCNC1=O)[C@H]1CC[C@@H]2C1(F)F [Example 92, (1S,3aS,4S,7R,7aR)—N-((S)-1-cyano-2-((S)-2-oxopyrrolidin-3-yl)ethyl)-2-((S)-3,3-dimethyl-2-(2,2,2-trifluoroacetamido)butanoyl)-8,8-difluorooctahydro-1H-4,7-methanoisoindole-1-carboxamide] | – | – | 20 to 200 | > 500 | – | 100 to 1000 | 100 to 1000
N#C[C@H](C[C@@H]1CCNC1=O)NC(=O)[C@@H]1[C@@H]2[C@H](CN1C(=O)[C@H](CC1CCC1)NC(=O)C(F)(F)F)[C@@H]1C=C[C@H]2C1 [Example 95] | – | – | < 20 | > 10000 | – | < 100 | < 100
COC1(C(=O)N[C@H](C(=O)N2C[C@H]3[C@@H]([C@H]2C(=O)N[C@H](C#N)C[C@@H]2CCNC2=O)[C@H]2C=C[C@@H]3C2)C(C)(C)C)CC1 [Compound 126] | – | – | 20 to 200 | > 500 | – | 100 to 1000 | 100 to 1000
CC(C)(C)[C@H](NC(=O)C(F)(F)F)C(=O)N1C[C@H]2[C@@H]([C@H]1C(=O)N[C@H](C#N)C[C@@H]1Oc3ccncc3NC1=O)[C@H]1C=C[C@@H]2C1(F)F [Compound 111] | – | – | < 20 | > 500 | – | < 100 | 100 to 1000
COC1(C(=O)N[C@H](C(=O)N2C[C@H]3[C@@H]([C@H]2C(=O)N[C@H](C#N)C[C@@H]2CCNC2=O)[C@H]2C=C[C@@H]3C2)C(C)(C)C)CCC1 [Compound 127] | – | – | 20 to 200 | > 500 | – | 100 to 1000 | < 100
CC(C)(C)[C@H](NC(=O)C(F)(F)F)C(=O)N1C[C@H]2[C@@H]([C@H]1C(=O)N[C@H](C#N)C[C@@H]1Oc3cnccc3NC1=O)[C@H]1C=C[C@@H]2C1 [Compound 113] | – | – | < 20 | > 500 | – | < 100 | < 100
CC(C)(C)[C@H](NC(=O)C(F)(F)F)C(=O)N1C[C@H]2[C@@H]([C@H]1C(=O)N[C@H](C#N)C[C@@H]1OCC3(CC3)NC1=O)[C@H]1C=C[C@@H]2C1 [Compound 120] | – | – | < 20 | > 500 | – | < 100 | < 100
CC(C)(C)[C@H](NC(=O)C(F)(F)F)C(=O)N1C[C@H]2[C@@H]([C@H]1C(=O)N[C@H](C#N)C[C@@H]1OCCCNC1=O)[C@H]1C=C[C@@H]2C1 [Compound 121, (1R,2S,3S,6R,7S)—N-[(1S)-1-cyano-2-[(2S)-3-oxo-1,4-oxazepan-2-yl]ethyl]-4-[(2S)-3,3-dimethyl-2-(2,2,2-trifluoroacetamido)butanoyl]-4-azatricyclo[5.2.1.0^{2,6}]dec-8-ene-3-carboxamide] | – | – | < 20 | > 500 | – | < 100 | < 100
CC(C)(C)[C@H](NC(=O)C(F)(F)F)C(=O)N1C[C@@H]2[C@H]3C[C@H](C[C@@H]3F)[C@@H]2[C@H]1C(=O)N[C@H](C#N)C[C@@H]1CCNC1=O [Example 96] | – | – | 20 to 200 | > 500 | – | 100 to 1000 | 100 to 1000
